Earlier results on 1 compound are cited in patent publication US11638760B2, “Pyrrolobenzodiazepine antibody conjugates” (priority 2017, dated 2023).

For the data set the following is noted: Phase I clinical evaluation.

Regarding `C=C1C[C@H]2C=Nc3cc(OCCCOc4cc5c(cc4OC)C(=O)N4CC(=C)C[C@H]4C=N5)c(OC)cc3C(=O)N2C1` [SJG-136], the maximum tolerated dose is 45 μg/m.
